US9023789B2, “Amylin analogs and pharmaceutical compositions thereof” (Novo Nordisk A/S, priority 2012, dated 2015)
In brackets after ≈: the same amount, converted by molar mass. Where two headings read alike, the source gives them in different places. Numbered stars: 1 amine (or outer) side, 2 acyl side, 3 side chain; on linkers, the order of the positions; unused ones are H or OH. Bridge positions count the residues as written; N and C are the ends. Side chains are listed from the residue outwards. Peptide text beside a SMILES is read from it. * marks the point of attachment. C20 diacid = O=C(O)CCCCCCCCCCCCCCCCCCC(=O)*; γGlu = O=C(O)[C@H](CCC(=O)[*:2])N[*:1]; AEEA = NCCOCCOCC(=O)O

Legend:
[1] = target: T1, human calcitonin (a) receptor in BHK570 cells (Homo sapiens, UniProt P30988); assay: ASSAY (II)a functional assay, human calcitonin receptor (CRE luciferase); format: cell-based; conditions: read-out: hCTR funct. EC50
T1 construct: expressed in transfected cells
T1 sequence (P30988 25-474): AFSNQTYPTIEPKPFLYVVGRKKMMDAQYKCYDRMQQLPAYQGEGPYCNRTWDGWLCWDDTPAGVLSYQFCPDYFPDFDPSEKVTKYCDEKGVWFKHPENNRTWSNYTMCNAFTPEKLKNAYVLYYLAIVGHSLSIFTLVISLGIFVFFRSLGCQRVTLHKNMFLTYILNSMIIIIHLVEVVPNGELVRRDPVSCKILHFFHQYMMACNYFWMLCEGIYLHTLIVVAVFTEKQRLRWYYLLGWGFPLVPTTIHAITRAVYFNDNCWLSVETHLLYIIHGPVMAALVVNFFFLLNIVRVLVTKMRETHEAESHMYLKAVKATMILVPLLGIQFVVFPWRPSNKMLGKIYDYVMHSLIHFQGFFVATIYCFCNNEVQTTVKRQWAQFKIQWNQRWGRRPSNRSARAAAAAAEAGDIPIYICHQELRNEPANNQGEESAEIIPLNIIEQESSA
How it was run: (§1)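 Readout is luminescence from a cAMP-responsive CRE-luc reporter, developed with LucLite for 30 min at room temperature. Cells were treated for 3 h at 37 °C in 10% FBS/DMEM buffered with 10 mM Hepes (pH 7.4).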

[2] = target: T2, rat amylin receptor (rat calcitonin receptor + rat RAMP 3) (Rattus norvegicus, UniProt P32214+Q9JJ73); assay: ASSAY (VI) binding to the rat amylin receptor; conditions: for IC50: binding to rat amylin receptor, read-out: rAmylin-R bind IC50
T2 construct: expressed in transfected cells; host or cells: BHK tk'ts 13 (transient, FuGENE 6), membranes
T2 sequence (P32214 25-479 isoform P32214-2 limits assumed): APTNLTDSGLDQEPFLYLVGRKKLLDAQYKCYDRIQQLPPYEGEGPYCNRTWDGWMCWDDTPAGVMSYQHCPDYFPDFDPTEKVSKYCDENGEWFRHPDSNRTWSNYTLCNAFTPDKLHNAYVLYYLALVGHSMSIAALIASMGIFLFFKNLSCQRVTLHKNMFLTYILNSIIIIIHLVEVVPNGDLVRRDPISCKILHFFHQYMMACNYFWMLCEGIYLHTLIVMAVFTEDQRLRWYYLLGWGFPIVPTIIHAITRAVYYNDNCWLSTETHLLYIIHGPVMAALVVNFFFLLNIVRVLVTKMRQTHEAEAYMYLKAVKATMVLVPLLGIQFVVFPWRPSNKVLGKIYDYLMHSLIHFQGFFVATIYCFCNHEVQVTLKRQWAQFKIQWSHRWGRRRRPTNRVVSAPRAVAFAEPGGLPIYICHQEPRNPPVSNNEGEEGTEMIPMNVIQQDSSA
T2 sequence (Q9JJ73 23-147 partner): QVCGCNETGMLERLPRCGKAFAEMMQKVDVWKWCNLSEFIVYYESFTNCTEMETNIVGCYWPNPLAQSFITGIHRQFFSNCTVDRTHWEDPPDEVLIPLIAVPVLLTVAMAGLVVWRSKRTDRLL
How it was run: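 Membranes for this rat amylin receptor binding assay came from BHK tk′ts 13 cells. The cells were transiently transfected with rat calcitonin receptor using the FuGENE® 6 reagent from Roche, as the manufacturer recommends. The cells were collected approximately 48 hours after transfection, and membranes were then prepared.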

[3] = ASSAY (IV) determination of solubility; format: physicochemical
How it was run: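 Samples of polypeptide, prepared from a water stock at […] and diluted 1:1 into 100 mM buffers spanning pH 3.0 to 8.0, stood 18 hours at room temperature. Polypeptide concentration was then determined by UPLC following centrifugation.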

[4] = target: T3, human calcitonin receptor (Homo sapiens, UniProt P30988); assay: ASSAY (VII) binding to the human calcitonin receptor (SPA, 125I-Calcitonin); conditions: read-out: hCTR bind IC50;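 note: cell membranes (35 ng/µL) combined with SPA beads in 40 µL of pH 7.4 Hepes buffer, 384-well format, signal counted on a TopCounter instrument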
T3 construct: expressed in transfected cells
T3 sequence (P30988 25-474): T1 sequence (P30988 25-474)

[5] = target: T4, human amylin 3(a) receptor (human calcitonin receptor + RAMP-3) in BHK570 cells (Homo sapiens, UniProt O60896+P30988); assay: ASSAY (II)a functional assay, human amylin receptor (CRE luciferase); format: cell-based; conditions: for EC50: human amylin receptor functional potency, assay (II), read-out: hAmylin-R funct. EC50
T4 construct: expressed in transfected cells
T4 sequence (O60896 24-148, one chain of several): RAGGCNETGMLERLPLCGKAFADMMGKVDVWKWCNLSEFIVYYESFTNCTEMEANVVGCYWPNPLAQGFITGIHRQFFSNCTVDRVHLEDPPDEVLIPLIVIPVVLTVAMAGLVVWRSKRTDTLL
How it was run: as §1

[6] = Table 7, rat binding selectivity, rCTR IC50 / rAmylin-R IC50
[7] = Table 7a (preferred compounds), rat binding selectivity, rCTR IC50 / rAmylin-R IC50
[8] = ratio of rCTR bind IC50 to rAmylin-R bind IC50
[9] = bistrispropane buffer, pH 6.5, read-out: Solubility pH 6.5 Concentration
[10] = bistrispropane buffer, pH 7.5, read-out: Solubility pH 7.5 Concentration
[11] = bistrispropane buffer, pH 6.0, read-out: Solubility pH 6.0 Concentration
[12] = bistrispropane buffer, pH 7.0, read-out: Solubility pH 7.0 Concentration
[13] = bistrispropane buffer, pH 8.0, read-out: Solubility pH 8.0 Concentration
[14] = glycylglycine buffer, pH 3.0, read-out: Solubility pH 3.0 Concentration
[15] = glycylglycine buffer, pH 4.0, read-out: Solubility pH 4.0 Concentration
[16] = glycylglycine buffer, pH 5.0, read-out: Solubility pH 5.0 Concentration
[17] = hCTR funct. EC50 divided by hAmylin-R funct. EC50
[18] = hCTR funct. EC50 over hAmylin-R funct. EC50
[19] = human functional selectivity: hCTR funct. EC50 / hAmylin-R funct. EC50

| EC50 [1] | IC50 ([2]; Table 7) | Ratio rCT/rAmylin binding [2, 6] | Ratio rCT/rAmylin binding [2, 7] | Ratio rCT/rAmylin binding [2, 8] | solubility at 18 h [3, 9] | solubility at 18 h [3, 10] | solubility at 18 h [3, 11] | solubility at 18 h [3, 12] | solubility at 18 h [3, 13] | solubility at 18 h [3, 14] | solubility at 18 h [3, 15] | solubility at 18 h [3, 16] | IC50 [4] | Ratio hCT/hAmylin funct. [5, 17] | Ratio hCT/hAmylin funct. [5, 18] | EC50 [5] | Ratio hCT/hAmylin funct. [5, 19] | Compound |
| --- | --- | --- | --- | --- | --- | --- | --- | --- | --- | --- | --- | --- | --- | --- | --- | --- | --- | --- |
| 1.25 nM | 0.45 nM | 104.0 | 104.0 | 104.0 | ≥ 200 µM | ≥ 200 µM | ≥ 200 µM | ≥ 200 µM | ≥ 200 µM | ≥ 200 µM | ≥ 200 µM | ≥ 200 µM | 8.68 nM | 13.3 | 13.3 | 0.094 nM | 13.3 | CC[C@H](C)[C@H](NC(=O)[C@H](C)NC(=O)CNC(=O)[C@H](Cc1ccccc1)NC(=O)[C@H](CC(N)=O)NC(=O)[C@@H]1CCCN1C(=O)[C@H](CO)NC(=O)[C@H](CO)NC(=O)[C@H](Cc1c[nH]cn1)NC(=O)[C@H](CCCNC(=N)N)NC(=O)[C@H](CC(C)C)NC(=O)[C@H](Cc1ccccc1)NC(=O)[C@H](Cc1c[nH]cn1)NC(=O)[C@H](C)NC(=O)[C@H](CC(C)C)NC(=O)[C@H](CCCNC(=N)N)NC(=O)[C@H](CCC(N)=O)NC(=O)[C@@H](NC(=O)[C@H](C)NC(=O)[C@@H]1CSSC[C@H](NC(=O)[C@@H](N)CCCCNC(=O)COCCOCCNC(=O)CC[C@H](NC(=O)CCCCCCCCCCCCCCCCCCC(=O)O)C(=O)O)C(=O)N[C@@H](CC(N)=O)C(=O)N[C@@H]([C@@H](C)O)C(=O)N[C@@H](C)C(=O)N[C@@H]([C@@H](C)O)C(=O)N1)[C@@H](C)O)C(=O)N1CCC[C@H]1C(=O)N[C@@H](CO)C(=O)N[C@@H](CO)C(=O)N[C@H](C(=O)N[C@@H](CC(N)=O)C(=O)N[C@H](C(=O)NCC(=O)N[C@@H](CO)C(=O)N[C@@H](CC(N)=O)C(=O)N[C@H](C(=O)N[C@@H](Cc1ccc(O)cc1)C(N)=O)[C@@H](C)O)C(C)C)[C@@H](C)O [Example 69] (H-K([AEEA-γGlu-C20 diacid])CNTATCATQRLAHFLRHSSPNFGAIPSSTNVGSNTY-NH2; disulfide 2-7; N-terminus assumed) |
| 4.76 nM | 0.851 nM | 259.3 | 259.3 | 259.3 | ≥ 200 µM | ≥ 200 µM | ≥ 200 µM | ≥ 200 µM | 194 µM (≈ 866 µg/mL) | ≥ 200 µM | ≥ 200 µM | ≥ 200 µM | 42.4 nM | 44.9 | 44.9 | 0.106 nM | 44.9 | CC[C@H](C)[C@H](NC(=O)[C@H](C)NC(=O)CNC(=O)[C@H](Cc1ccccc1)NC(=O)[C@H](CC(N)=O)NC(=O)[C@@H]1CCCN1C(=O)[C@H](CO)NC(=O)[C@H](CO)NC(=O)[C@H](Cc1c[nH]cn1)NC(=O)[C@H](CCCNC(=N)N)NC(=O)[C@H](CC(C)C)NC(=O)[C@H](Cc1ccccc1)NC(=O)[C@H](C)NC(=O)[C@H](C)NC(=O)[C@H](CC(C)C)NC(=O)[C@H](CCCNC(=N)N)NC(=O)[C@H](CCC(N)=O)NC(=O)[C@@H](NC(=O)[C@H](C)NC(=O)[C@@H]1CSSC[C@H](NC(=O)[C@@H](N)CCCCNC(=O)COCCOCCNC(=O)CC[C@H](NC(=O)CCCCCCCCCCCCCCCCCCC(=O)O)C(=O)O)C(=O)N[C@@H](CC(N)=O)C(=O)N[C@@H]([C@@H](C)O)C(=O)N[C@@H](C)C(=O)N[C@@H]([C@@H](C)O)C(=O)N1)[C@@H](C)O)C(=O)N1CCC[C@H]1C(=O)N[C@@H](CO)C(=O)N[C@@H](CO)C(=O)N[C@H](C(=O)N1CCC[C@H]1C(=O)N[C@H](C(=O)NCC(=O)N[C@@H](CO)C(=O)N[C@@H](CC(N)=O)C(=O)N[C@H](C(=O)N[C@@H](Cc1ccc(O)cc1)C(N)=O)[C@@H](C)O)C(C)C)[C@@H](C)O [Example 72] (H-K([AEEA-γGlu-C20 diacid])CNTATCATQRLAAFLRHSSPNFGAIPSSTPVGSNTY-NH2; disulfide 2-7 (inferred); N-terminus assumed) |

| Compound | EC50 [1] | IC50 ([2]; Table 7) | Ratio rCT/rAmylin binding [2, 6] | Ratio rCT/rAmylin binding [2, 7] | Ratio rCT/rAmylin binding [2, 8] | solubility at 18 h [3, 9] | solubility at 18 h [3, 10] | solubility at 18 h [3, 11] | solubility at 18 h [3, 12] | solubility at 18 h [3, 13] | solubility at 18 h [3, 14] | solubility at 18 h [3, 15] | solubility at 18 h [3, 16] | IC50 [4] | Ratio hCT/hAmylin funct. [5, 17] | Ratio hCT/hAmylin funct. [5, 18] | EC50 [5] | Ratio hCT/hAmylin funct. [5, 19] |
| --- | --- | --- | --- | --- | --- | --- | --- | --- | --- | --- | --- | --- | --- | --- | --- | --- | --- | --- |
| CC[C@H](C)[C@H](NC(=O)[C@H](C)NC(=O)CNC(=O)[C@H](Cc1ccccc1)NC(=O)[C@H](CC(N)=O)NC(=O)[C@@H]1CCCN1C(=O)[C@H](CO)NC(=O)[C@H](CO)NC(=O)[C@H](Cc1c[nH]cn1)NC(=O)[C@H](CCCNC(=N)N)NC(=O)[C@H](CC(C)C)NC(=O)[C@H](Cc1ccccc1)NC(=O)[C@H](Cc1c[nH]cn1)NC(=O)[C@H](C)NC(=O)[C@H](CC(C)C)NC(=O)[C@H](CCCNC(=N)N)NC(=O)[C@H](CCC(N)=O)NC(=O)[C@@H](NC(=O)[C@H](C)NC(=O)[C@@H]1CSSC[C@H](NC(=O)[C@@H](N)CCCCNC(=O)CC[C@H](NC(=O)CCCCCCCCCCCCCCCCCCC(=O)O)C(=O)O)C(=O)N[C@@H](CC(N)=O)C(=O)N[C@@H]([C@@H](C)O)C(=O)N[C@@H](C)C(=O)N[C@@H]([C@@H](C)O)C(=O)N1)[C@@H](C)O)C(=O)N1CCC[C@H]1C(=O)N[C@@H](CO)C(=O)N[C@@H](CO)C(=O)N[C@H](C(=O)N[C@@H](CC(N)=O)C(=O)N[C@H](C(=O)NCC(=O)N[C@@H](CO)C(=O)N[C@@H](CC(N)=O)C(=O)N[C@H](C(=O)N[C@@H](Cc1ccc(O)cc1)C(N)=O)[C@@H](C)O)C(C)C)[C@@H](C)O [Example 70] (H-K([γGlu-C20 diacid])CNTATCATQRLAHFLRHSSPNFGAIPSSTNVGSNTY-NH2; disulfide 2-7; N-terminus assumed) | 0.715 nM | 0.355 nM | 96.5 | 96.5 | 96.5 | ≥ 200 µM | ≥ 200 µM | ≥ 200 µM | ≥ 200 µM | ≥ 200 µM | ≥ 200 µM | ≥ 200 µM | ≥ 200 µM | 10.3 nM | 17.9 | 17.9 | 0.04 nM | 17.9 |
